Measurements: US9192670B2, “Regulation of amyloid beta molecular composition for the treatment of alzheimer's disease” (Ramot at Tel-Aviv University Ltd., priority 2011, dated 2015)
Entries after “also recorded” stand apart in the source; their conditions may differ. Where two headings read alike, the source gives them in different places.

What was measured:
hippocampal slices = assay: Extracellular Aβ40/Aβ42 by sandwich ELISA in acute hippocampal slices stimulated by single spikes or spike bursts; type: cell-based, rat
CA3-CA1 connections [1] = assay: fEPSP/EPSC recordings in CA3-CA1 connections of hippocampal slices; type: cell-based, rat
rat hippocampal cultures = type: cell-based
CA3-CA1 connections [2] = assay: fEPSP recordings in CA3-CA1 connections of human hippocampal slices; type: cell-based; settings: RS-baclofen 20 μM
Procedure: (§1) Human slices were subjected to 1 hour stimulations by single spikes or spike bursts as described for experiments in rodents herein above (each burst contains 5 APs, inter-spike-interval 10 ms, inter-burst interval 5 s) in ACSF in the presence of 50 μM AP-5 for blocking postsynaptic excitatory NMDA receptors. Following stimulation, [Aβ40]o and [Aβ42]o in ACSF were measured by sandwich ELISA. Extracellularly recorded field EPSPs (fEPSPs) were used to assess short-term synaptic plasticity.

APP = assay: Western blot of APP processing in APP/PS1 hippocampal slices; type: cell-based, mouse; settings: APP/PS1 slices before and after pre-treatment with baclofen
Description: Immunoblot Analysis. At the end of each stimulation, hippocampal slices were homogenized and prepared for the detection of full-length APP, soluble APP and APP-C terminal fragment (APP-CTF) by western blotting as described previously^18. Full length APP and soluble APP was probed using anti-APP 22C11 monoclonal antibody (Millipore, Temecula, Calif., 1:2000). In APP/PS1 slices, APP-bCTF was detected using 82E1 monoclonal antibody (IBL, Japan, 1:200). Both 22C11 and 82E1 probing were followed by goat anti-mouse HRP conjugated secondary antibody (Jackson ImmunoResearch, West Grove, Pa., 1:5000). APP-aCTF was detected using rabbit anti-APP-CTF antibody (Millipore, Temecula, Calif., 1:10,000) followed by goat anti-rabbit HRP conjugated secondary antibody (Jackson ImmunoResearch, West Grove, Pa., 1:5000). Following detection, blots were stripped with Restore™ Western Blot Stripping Buffer (Pierce, Thermo Scientific, Rockford, Ill.) and then re-probed with mouse anti-actin (SIGMA, Israel, 1:10,000) and HRP-conjugated goat anti-mouse (1:5000) antibodies as a loading control protein. All proteins were visualized by SuperSignal® West Pico Chemiluminescent (Pierce; Thermo Scientific, Rockford, Ill.). Densitometry was performed using the ImageJ Analysis software, and each band was normalized to its actin signal.

human hippocampal slices = assay: Extracellular Aβ40/Aβ42 by ELISA in human hippocampal slices, single spikes or spike bursts; type: cell-based; settings: RS-baclofen 20 μM
Procedure: as §1

CA3-CA1 connections [3] = assay: fEPSP recordings in CA3-CA1 connections of APP/PS1 hippocampal slices; type: cell-based, mouse
human cortical slices [4] = assay: Extracellular Aβ40/Aβ42 by ELISA in human cortical slices, single spikes or spike bursts; type: cell-based; settings: RS-baclofen 20 μM
Procedure: as §1

[5] = tested on: APP/PS1 hippocampal slices; assay: Extracellular Aβ40/Aβ42 by ELISA in APP/PS1 hippocampal slices, single spikes or spike bursts; type: cell-based, mouse
human cortical slices [6] = assay: fEPSP recordings in human cortical slices; type: cell-based; settings: RS-baclofen 20 μM
Procedure: as §1

CFP-PS1-YFP = type: cell-based, rat
[7] = in vivo; cited from earlier work
[8] = 20 mM gabazine, 1 h at 37° C., blocking GABAA receptors
[9] = baclofen 1 μM, 3 h, APP/PS1 slices

OC[C@H]1O[C@@H](n2cnc3c(NC4CCCC4)nc(Cl)nc32)[C@H](O)[C@@H]1O [CCPA, 2-Chloro-N-cyclopentyladenosine]
Aβ40/42 during periods of high-frequency burst firing (hippocampal slices): boosting | Aβ40 pattern dependency (burst/single ratio) (hippocampal slices): rescued | Aβ42 burst/single ratio (hippocampal slices): unaltered | [Aβ40]o during single spikes (hippocampal slices): decreased | [Aβ40]o during spike bursts (hippocampal slices): increasing | pattern dependency of the Aβ40/42 ratio (hippocampal slices): restored | basal synaptic transmission (CA3-CA1 connections [1]): rescued | burst/single ratio of fEPSP charge transfer per spike (QfEPSP) (CA3-CA1 connections [1]): rescued | short-term facilitation (relative slopes of fEPSPs within the burst) (CA3-CA1 connections [1]): rescued | slope of linear fit of input-output relationship (stimulation amplitude vs slope of fEPSP) (CA3-CA1 connections [1]): 0.49±0.03

C[C@@H](NC(=O)c1cc(C(=O)N[C@@H](Cc2ccccc2)[C@H](O)CNC2CC2)cc(N(C)S(C)(=O)=O)c1)c1ccccc1 [BACE1 inhibitor IV]
[Aβ40]o in pretreated slices (hippocampal slices): negligible | [Aβ42]o in pretreated slices (hippocampal slices): negligible

C[C@H](NC[C@H](O)CP(=O)(O)CC1CCCCC1)c1ccc(Cl)c(Cl)c1 [CGP54626]
[Aβ40]o during single spikes (hippocampal slices): did not affect | [Aβ40]o during spike bursts (hippocampal slices): reduced | [Aβ42]o during either single spikes or bursts (hippocampal slices): did not affect | difference between the Aβ40/42 ratio associated with single and burst patterns (hippocampal slices): abolished | pattern dependency of Aβ40 (hippocampal slices): reduced | pattern dependency of the Aβ40/42 ratio (hippocampal slices): reduced | burst/single ratio of fEPSP charge transfer per spike (QfEPSP) (CA3-CA1 connections [1]): reduced | short-term synaptic facilitation during the burst (CA3-CA1 connections [1]): reduced | slope of linear fit of input-output relationship (stimulation amplitude vs slope of fEPSP) (CA3-CA1 connections [1]): 1.13±0.06

COc1ccc(-c2ccc(=N)n(CCCC(=O)O)n2)cc1 [gabazine]
[Aβ40]o increased by (rat hippocampal cultures; [8]): 93.5% | [Aβ42]o increased by (rat hippocampal cultures; [8]): 103%

ω-conotoxin GVIA [ω-CgTx]
Aβ40/42 during periods of high-frequency burst firing (hippocampal slices): boosting | Aβ40 pattern dependency (burst/single ratio) (hippocampal slices): rescued | Aβ42 burst/single ratio (hippocampal slices): unaltered | [Aβ40]o during single spikes (hippocampal slices): decreased | [Aβ40]o during spike bursts (hippocampal slices): increasing | pattern dependency of the Aβ40/42 ratio (hippocampal slices): restored | basal synaptic transmission (CA3-CA1 connections [1]): rescued | burst/single ratio of fEPSP charge transfer per spike (QfEPSP) (CA3-CA1 connections [1]): rescued | short-term facilitation (relative slopes of fEPSPs within the burst) (CA3-CA1 connections [1]): rescued | slope of linear fit of input-output relationship (stimulation amplitude vs slope of fEPSP) (CA3-CA1 connections [1]): 0.82±0.03

NCC(CC(=O)O)c1ccc(Cl)cc1 (stereo not drawn) [baclofen]
short-term synaptic facilitation during the burst (CA3-CA1 connections [2]): increased | burst/single ratio of FL-APP (APP): no significant differences | burst/single ratio of βCTF (APP): no significant differences | Aβ40/42 ratio during burst pattern of stimulation (human hippocampal slices): increased | Aβ42 pattern dependency (human hippocampal slices): without affecting | [Aβ42]o during either single- or burst stimulation pattern (human hippocampal slices): uniformly inhibited | burst pattern sensitivity of Aβ40 (human hippocampal slices): increased | pattern dependency of the Aβ40/42 (human hippocampal slices): induced | [Aβ40]o (human hippocampal slices; stronger during single spikes): inhibited | burst/single ratio of fEPSP charge transfer per spike (QfEPSP) (CA3-CA1 connections [3]): reversed | slope of linear fit of input-output relationship (stimulation amplitude vs slope of fEPSP) (CA3-CA1 connections [3]): 0.95±0.06 | reduction in short-term synaptic facilitation by burst in APP/PS1 mice (CA3-CA1 connections [3]; [9]): reversed | Aβ42 pattern dependency (human cortical slices [4]): no effect | burst pattern sensitivity of Aβ40 (human cortical slices [4]): increased | pattern dependency of the Aβ40/42 (human cortical slices [4]): induced | Aβ40/42 during periods of high-frequency burst firing (hippocampal slices): boosting | Aβ40 pattern dependency (burst/single ratio) (hippocampal slices): rescued | Aβ42 burst/single ratio (hippocampal slices): unaltered | [Aβ40]o during spike bursts (hippocampal slices): increasing; also recorded: increased | [Aβ42]o during either single spikes or bursts (hippocampal slices): did not affect | difference between the Aβ40/42 ratio associated with single and burst patterns (hippocampal slices): restored | pattern dependency of the Aβ40/42 ratio (hippocampal slices): restored | pattern dependency of Aβ40 (hippocampal slices; 3 h pre-incubation, CGP54626 10 μM, baclofen 1 μM in ↑Ca/Mg-slices): rescued | Aβ40/42 ratio associated with burst patterns [5]: increased | [Aβ40]o during single spikes [5]: did not affect | [Aβ42]o during either single spikes or bursts [5]: did not affect | burst/single ratio of Aβ42 [5]: did not affect | pattern dependency of the Aβ40/42 ratio [5]: rescued | reduction in the Aβ40 burst/single ratio [5]: rescued | [Aβ40]o during bursts [5, 9]: increased | short-term synaptic depression (human cortical slices [6]): reduced | basal synaptic transmission (CA3-CA1 connections [1]): rescued | burst/single ratio of fEPSP charge transfer per spike (QfEPSP) (CA3-CA1 connections [1]): rescued | short-term facilitation (relative slopes of fEPSPs within the burst) (CA3-CA1 connections [1]): rescued | slope of linear fit of input-output relationship (stimulation amplitude vs slope of fEPSP) (CA3-CA1 connections [1]): 0.77±0.02 | short-term synaptic facilitation during the burst (CA3-CA1 connections [1]; 3 h pre-incubation, CGP54626 10 μM in ACSF, baclofen 1 μM in ↑Ca/Mg-slices, recordings in normal ACSF): rescued | total synaptic strength (CA3-CA1 connections [1]; pretreatment of hippocampal slices with baclofen for 3 h before electrical stimulation): did not alter | FYFP/FCFP (FR) on changing stimulation pattern from single spikes to spike bursts (CFP-PS1-YFP): not affected

[Cd] [cadmium]
Aβ40/42 pattern dependency (hippocampal slices): abolished | Aβ40/42 ratio (hippocampal slices): decreased | Aβ40 burst/single ratio (hippocampal slices): reduced | [Aβ40]o reduced by, during single spikes (hippocampal slices): 67% | [Aβ40]o reduced by, during spike bursts (hippocampal slices): 77% | [Aβ42]o at either stimulation pattern (hippocampal slices): did not alter | burst/single ratio of Aβ42 (hippocampal slices): did not affect | synaptic transmission (CA3-CA1 connections [1]): completely blocked

NC1=N[C@H](O)[C@H]2[C@H]3O[C@]4(O)O[C@@H]([C@@H](O)[C@@]2(N1)[C@@H]4O)[C@]3(O)CO [tetrodotoxin]
[Aβ40]o reduced by (rat hippocampal cultures): 34% | [Aβ42]o reduced by (rat hippocampal cultures): 31% | elimination rate of total Aβ [7]: lack of TTX effect | CFP-PS1-YFP FRET efficiency (CFP-PS1-YFP): did not change | FYFP/FCFP (FR) (CFP-PS1-YFP): not affected

CC(=O)OCOC(=O)CN(CCOCCOCCN(CC(=O)OCOC(C)=O)CC(=O)OCOC(C)=O)CC(=O)OCOC(C)=O [EGTA-AM]
Aβ40/42 pattern dependency (hippocampal slices): abolished | Aβ40/42 ratio associated with burst patterns (hippocampal slices): decreased | Aβ40 burst/single ratio (hippocampal slices): reduced | [Aβ40]o during spike bursts (hippocampal slices): reduced | [Aβ42]o during either single spikes or bursts (hippocampal slices): did not affect | burst/single ratio of Aβ42 (hippocampal slices): did not affect | EPSCs evoked by single spikes reduced by (CA3-CA1 connections [1]): 20% | burst/single ratio of EPSC charge transfer per spike (QEPSC) (CA3-CA1 connections [1]): lower | synaptic facilitation of EPSCs reduced by (CA3-CA1 connections [1]): 70%
